A word on the GI50: it is the concentration giving 50% growth inhibition.

What all share (type): cell-based
In test [1] the test system is colon 12 tumor initiating cells. As to the kind of experiment: Colon tumor-initiating cell growth inhibition, Alamar Blue assay. The following applies: 216 h, colon TICs, 9 days culture, read-out: Tumor Initiating Cell Line GI50 Range colon 12. An excerpt: (§1) Non-tissue or tissure cultured treated T-75 flask and 96-well plates were purchased from VWR. Vitamin B-27 supplement, MEM NEAA (minimum essential medium non essential amino acids), sodium pyruvate, L-glutamine, N2 supplement, penicillin-streptomycin and fungizone/amphotericin B were obtained from Invitrogen. Lipid mixture, heparin and EGF were purchased from Sigma; bFGF from BD Biosciences. Colon tumor initiating cells (TICs) were routinely maintained using non-tissue cultured treated T-75 flasks in DMEM:F12 medium containing 0.2XB-27 supplement, 4 ug/ml heparin, 1XMEM NEAA, 1Xsodium pyruvate, 1 mM glutamine, 10 pg/ul bFGF, 20 pg/ul EGF, 1×N2 supplement, lipid mixture, penicillin-streptomycin and fungizone/amphotericin B. Ovarian TICs were routinely maintained using tissue cultured treated T-75 flasks in DMEM:F12 medium containing 1XB-27 supplement, 4 ug/ml heparin, 20 pg/ul bFGF, 20 pg/ul EGF and penicillin-streptomycin.
(§2) Compounds described herein were dissolved in DMSO and further diluted in cell culture medium for GI50 determination. Colon TICs were trypsinized and seeded into non-tissue cultured treated 96-well plates with 4,000 cells/well. After 24 h, compound was added into the cell culture at different concentrations, and the final concentration of DMSO was adjusted to 0.1%. Cells were then cultured at 37° C. for 9 days. Ovarian TICs were trypsinized and seeded into tissue cultured treated 96-well plates with 1,000 cells/well. After 24 h, compound was added into the cell culture at different concentrations, and the final concentration of DMSO was adjusted to 0.1%. Cells were then cultured at 37° C. for 6 days. Cell viability was assessed by Alamar Blue assay: 10 ul of Alamar Blue was added into each well. After 4 hours incubation at 37° C., fluorescence was recorded at excitation 544 and emission 590. GI50 (Growth inhibition) was calculated using GraphPad Prism 4.0 software. Cell growth inhibition data for compounds described herein is tabulated below (Table 2). The GI50 ranges are indicated as “A,” and “B”, for values less than or equal to 0.1 μM: those greater than 0.1 μM and less than or equal to 0.5 μM, respectively.
A general note: Alamar Blue is a resazurin reagent that responds to reducing activity.

The subject of test [2] is ovarian 2393A tumor initiating cells. The experiment in a line: Ovarian tumor-initiating cell growth inhibition, Alamar Blue assay. The following applies: 144 h, ovarian TICs, 6 days culture, read-out: Tumor Initiating Cell Line GI50 Range ovarian 2393A.
Source text: as §1, §2

The subject of test [3] is HCT116 colon cancer cells. As to the kind of experiment: Cancer cell growth inhibition, Sulforhodamine B assay. The following applies: Homo sapiens, HCT-116, 120 h; HCT116, 5 days culture, SRB; read-out: Cancer Cell Line GI50 Range HCT116. As to the method:
(§3) Breast cancer cells (MDA-MB-231), colon cancer cells (HCT116) and ovarian cancer cells (PA-1) were seeded (1000 to 4000 in 80 μl per well depending on the cell growth rate) into 96 well plates 24 hours before compound overlay. Compounds were prepared as 10 mM stock solutions in 100% DMSO which were diluted with DMEM (Dulbecco's Modified Eagle's Medium) cell growth Medium (Invitrogen, Burlington, ON, Canada) containing 10% FBS (Fetal Bovine Serum) to concentrations ranging from 50 nM to 250 μM. Aliquots (20 μl) from each concentration were overlaid to 80 μl of the pre-seeded cells in the 96 well plates to make final concentrations of 10 nM to 50 μM. The cells were cultured for 5 days before the Sulforhodamine B assay (SRB) was performed to determine the compound's cell growth inhibition activity.
(§4) Sulforhodamine B (purchased from Sigma, Oakville, ON, Canada) is a water-soluble dye that binds to the basic amino acids of the cellular proteins. Thus, colorimetric measurement of the bound dye provides an estimate of the total protein mass that is related to the cell number. the cells are fixed in situ by gently aspirating off the culture media and adding 50 μl ice cold 10% Trichloroacetic Acid (TCA) per well and incubate at 4° C. for 30-60 min. The plates are washed with H2O five times and allowed to air dry for 5 min. Addition of 50 μl 0.4% (w/v) SRB solution in 1% (v/v) acetic acid to each well and incubatation for 30 min at RT completes the staining reaction. Following staining, plates are washed four times with 1% acetic acid to remove unbound dye and then allowed to air dry for 5 min. The stain is solubilized with 100 μl of 10 mM Tris pH 10.5 per well. Absorbance is read at 570 nm.
(§5) The percentage (%) of relative growth inhibition was calculated by comparing to DMSO treated only cells (100%). GI50's were determined for compounds with cytotoxic activity. The GI50 was calculated using GraphPad PRISM software (GraphPad Software, Inc., San Diego, Calif., USA). GI50 (growth inhibition) is the compound concentration that causes 50% inhibition of cell growth.
(§6) In Table 1 below, GI50 value ranges for several compound examples against breast cancer cell lines (MDA-MB-231), colon cancer cell lines (HCT116) and ovarian cancer cell lines (PA-1) are given. […] The GI50 ranges are indicated as “A,” “B,” and “C,” for values less than or equal to 0.1 μM; those greater than 0.1 μM and less than or equal to 0.5 μM; and those greater than 0.5 μM, respectively.

For test [4], the system named is PA-1 ovarian cancer cells. The test is described as above. The following applies: 120 h; PA-1, 5 days culture, SRB; read-out: Cancer Cell Line GI50 Range PA-1. How it is done:
as §3, §4, §5, §6

In test [5] the test system is MDA-MB-231 breast cancer cells. The test is described as above. The following applies: Homo sapiens, 120 h; MDA-MB-231, 5 days culture, SRB; read-out: Cancer Cell Line GI50 Range MDA-MB-231. As to the method: as §3, §4, §5, §6

`CC(C)[C@H](NC(=O)c1ccc2[nH]nc(-c3ccc(N4CC5(CCO5)C4)cc3)c2c1)c1ccccc1Cl` [Example A23, (S)-3-(4-(1-Oxa-6-azaspiro[3.3]heptan-6-yl)phenyl)-N-(1-(2-chlorophenyl)-2-methylpropyl)-1H-indazole-5-carboxamide]: the GI50 in test [1], in test [2], in test [3], in test [4] and in test [5] was at most 100 nM each time.

In the case of `O=C(N[C@H](c1ccccn1)C1CCCC1)c1ccc2[nH]nc(-c3ccc(N4CC5(CCOCC5)C4)cc3)c2c1` [Example A19, (S)-3-(4-(7-Oxa-2-azaspiro[3.5]nonan-2-yl)phenyl)-N-(cyclopentyl(pyridin-2-yl)methyl)-1H-indazole-5-carboxamide], the GI50 was at most 100 nM in test [1]; 100 to 500 nM in test [2]; at most 100 nM in test [3]; at most 100 nM in test [4]; at most 100 nM in test [5].

Regarding `O=C(NC(c1ccccn1)C1CCCC1)c1ccc2[nH]nc(-c3ccc(N4CC5(COC5)C4)cc3)c2c1` (stereo not shown) [Example A7, 3-(4-(2-Oxa-6-azaspiro[3.3]heptan-6-yl)phenyl)-N-(cyclopentyl(pyridin-2-yl)methyl)-1H-indazole-5-carboxamide], the GI50 in test [1], in test [2], in test [3], in test [4] and in test [5] was at most 100 nM throughout.

Consider `O=C(N[C@@H](c1ccccn1)C1CC1)c1ccc2[nH]nc(-c3ccc(N4CC5(COC5)C4)cc3)c2c1` [Example A6, (R)-3-(4-(2-oxa-6-azaspiro[3.3]heptan-6-yl)phenyl)-N-(cyclopropyl(pyridin-2-yl)methyl)-1H-indazole-5-carboxamide], for which the GI50 in test [1] was 100 to 500 nM; in test [2], 100 to 500 nM; in test [3], at most 100 nM; in test [4], at most 100 nM; in test [5] it was 100 to 500 nM.

For `O=C(Nc1ccc2[nH]nc(-c3ccc(N4CC5(COC5)C4)cc3)c2c1)C(c1ccsc1)N1CCCC1` (stereo not shown) [Example A1, N-(3-(4-(2-oxa-6-azaspiro[3.3]heptan-6-yl)phenyl)-1H-indazol-5-yl)-2-(pyrrolidin-1-yl)-2-(thiophen-3-yl)acetamide], the GI50 in test [1], in test [2], in test [3], in test [4] and in test [5] was at most 100 nM in each case.

(Values after patent US8980934B2, “Kinase inhibitors and method of treating cancer with same” (University Health Network, priority 2012, dated 2015).)
